Source: patent publication US20260216198A1, “GPR35 MODULATORS” (ThirtyFiveBio Limited, priority 2023, published 2026)

Each compound was assayed against T1, GPR35 (Homo sapiens, UniProt Q9HC97) (assay: cellular GPR35 phospho-ERK HTRF assay (inhibition of lodoxamide-induced phospho-ERK signal)). Conditions: GPR35-CHO-K1-mt aequorin-Gα16 cell line; agonist lodoxamide at EC80; read-out: Activity Group (IC50, inhibition of GPR35 agonist-induced phospho-ERK signal).
T1 construct: expressed in transfected cells; host or cells: CHO-K1 cells co-expressing mitochondrial aequorin and Gα16
T1 sequence (Q9HC97 whole entry): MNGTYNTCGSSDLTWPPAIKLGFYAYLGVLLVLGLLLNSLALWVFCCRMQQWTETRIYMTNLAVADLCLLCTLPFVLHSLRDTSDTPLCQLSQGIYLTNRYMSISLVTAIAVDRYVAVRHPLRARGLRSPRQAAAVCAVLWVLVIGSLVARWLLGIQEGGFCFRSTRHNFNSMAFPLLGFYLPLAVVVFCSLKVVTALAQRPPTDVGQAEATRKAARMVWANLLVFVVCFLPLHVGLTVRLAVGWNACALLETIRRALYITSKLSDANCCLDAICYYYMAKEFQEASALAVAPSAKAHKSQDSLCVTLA
Type: cell-based
Description: (§1) The functional GPR35 assay as described in the accompanying examples measures the ability of GPR35 modulators to inhibit a GPR35 agonist-induced phospho-ERK signal. This is expressed as the concentration of modulator required to reduce the phospho-ERK signal by 50 percent, i.e. the IC50; the signal window being defined as the difference between agonist plus modulator vehicle (no modulator) and agonist vehicle (no agonist) controls.
as §1, with “functional” for “functional GPR35”, “assay” for “assay as”, “described” for “described in the accompanying examples”
This assay is a cellular GPR35 phospho-ERK homogeneous time resolved fluorescence (HTRF) assay using the GPR35-CHO-K1-mt aequorin-Gα16 cell line. Upon activation of GPR35 with the agonist lodoxamide at EC80 concentration, ERK 1/2 is phosphorylated, and after lysis of the cell membrane, phospho-ERK1/2 (Thr202/Tyr204) is detected in a sandwich assay using two different specific antibodies, one labelled with Eu^3+-cryptate (donor) and the second with d2 (acceptor). When the dyes are in proximity, the excitation of the donor with a light source (laser or flash lamp) triggers a Fluorescence Resonance Energy Transfer (FRET) towards the acceptor, resulting in specific acceptor fluorescence (at 665 nm). The specific signal is directly proportional to the amount of phospho-ERK1/2 (Thr202/Tyr204) in the sample. Compounds that interfere with the levels of phospho-ERK1/2 (Thr202/Tyr204) will result in a low HTRF signal.
With `O=C(O)c1cnc(F)c(-c2cccc(C(=O)Nc3ccc(OCCc4ccccc4)cc3)c2)c1` [Example 65, 6-Fluoro-5-[3-[[4-(2-phenylethoxy)phenyl]carbamoyl]phenyl]pyridine-3-carboxylic acid] the IC50 was < 1000 nM.
In the case of `COc1ccc(C(=O)Nc2ccc(COCc3ccccc3)cc2)cc1-c1cnc(C)c(C(=O)O)c1` [Example 81, 5-[5-[[4-(Benzyloxymethyl)phenyl]carbamoyl]-2-methoxy-phenyl]-2-methyl-pyridine-3-carboxylic acid], the IC50 is reported as < 1000 nM.
`Cc1ncc(-c2ccc(F)c(C(=O)Nc3ccc(COCc4ccccc4)cc3)c2F)cc1C(=O)O` [Example 87, 5-[3-[[4-(Benzyloxymethyl)phenyl]carbamoyl]-2,4-difluoro-phenyl]-2-methyl-pyridine-3-carboxylic acid] gave an IC50 of 1000 to 10000 nM.
In the case of `O=C(Nc1ccc(OCCc2ccccc2)cc1)c1cccc(-c2ccnc(C(=O)O)n2)c1` [Example 7, 4-(3-((4-Phenethoxyphenyl)carbamoyl)phenyl)pyrimidine-2-carboxylic acid], the IC50 is reported as < 1000 nM.
In the case of `Cc1ncc(-c2cccc(C(=O)Nc3ccc(OC(C)C4CC4)cc3)c2)cc1C(=O)O` (stereo not shown) [Example 60, 5-[3-[[4-(1-Cyclopropylethoxy)phenyl]carbamoyl]phenyl]-2-methyl-pyridine-3-carboxylic acid], the IC50 is reported as < 1000 nM.
`Cc1ncc(-c2cncc(C(=O)Nc3ccc(OCCc4ccccc4)cc3)n2)cc1C(=O)O` [Example 54, 2-Methyl-5-(6-((4-phenethoxyphenyl)carbamoyl)pyrazin-2-yl)nicotinic acid] gave an IC50 of 1000 to 10000 nM.
For `Cc1ncc(-c2cccc(C(=O)Nc3ccc(COCc4ccccc4)cc3)c2)nc1C(=O)O` [Example 68, 6-[3-[[4-(Benzyloxymethyl)phenyl]carbamoyl]phenyl]-3-methyl-pyrazine-2-carboxylic acid], the IC50 was < 1000 nM.
Compound `Cc1ncc(-c2ccc(F)c(C(=O)Nc3ccc(COC4CC4)c(F)c3)c2)cc1C(=O)O` [Example 91, 5-[3-[[4-(Cyclopropoxymethyl)-3-fluoro-phenyl]carbamoyl]-4-fluoro-phenyl]-2-methyl-pyridine-3-carboxylic acid] has an IC50 of 1000 to 10000 nM.
For `O=C(Nc1ccc(OCCc2ccccc2)cc1)c1cccc(-c2cnc(F)c(C(=O)O)c2)c1` [Example 11, 2-Fluoro-5-(3-((4-phenethoxyphenyl)carbamoyl)phenyl)nicotinic acid], the IC50 was < 1000 nM.
`O=C(O)c1ccnc(-c2cccc(C(=O)Nc3ccc(OCCc4ccccc4)cc3)c2)c1` [Example 13, 2-(3-((4-Phenethoxyphenyl)carbamoyl)phenyl)isonicotinic acid] was tested, and the IC50 was < 1000 nM.
In the case of `COc1cc(COCc2ccccc2)ccc1NC(=O)c1cccc(-c2cnc(C)c(C(=O)O)c2)c1` [Example 61, 5-[3-[[4-(Benzyloxymethyl)-2-methoxy-phenyl]carbamoyl]phenyl]-2-methyl-pyridine-3-carboxylic acid], the IC50 is reported as 1000 to 10000 nM.
For `O=C(Nc1ccc(OCCc2ccccc2)cc1)c1cccc(-c2cnc(NC3CC3)c(C(=O)O)c2)c1` [Example 38, 2-(Cyclopropylamino)-5-(3-((4-phenethoxyphenyl)carbamoyl)phenyl)nicotinic acid], the IC50 was < 1000 nM.
For `O=C(Nc1ccc(OCCc2ccccc2)cc1)c1cccc(-c2cccc(C(=O)O)n2)c1` [Example 18, 6-(3-((4-Phenethoxyphenyl)carbamoyl)phenyl)picolinic acid], the IC50 was < 1000 nM.
`NC(=O)c1ncc(-c2cccc(C(=O)Nc3ccc(OCCc4ccccc4)cc3)c2)cc1C(=O)O` [Example 29, 2-Carbamoyl-5-(3-((4-phenethoxyphenyl)carbamoyl)phenyl)nicotinic acid] showed an IC50 of 1000 to 10000 nM.
`Cc1c(C(=O)O)cncc1-c1cccc(C(=O)Nc2ccc(OCCc3ccccc3)cc2)c1` [Example 27, 4-Methyl-5-(3-((4-phenethoxyphenyl)carbamoyl)phenyl)nicotinic acid] was tested, and the IC50 was 1000 to 10000 nM.
`Cc1ncc(-c2cccc(C(=O)Nc3ccc(COCc4ccccc4)cc3F)c2)cc1C(=O)O` [Example 47, 5-(3-((4-((Benzyloxy)methyl)-2-fluorophenyl)carbamoyl)phenyl)-2-methylnicotinic acid] gave an IC50 of 1000 to 10000 nM.
Work on `Cc1ncc(-c2cncc(C(=O)Nc3ccc(OCCc4ccccc4)cc3)c2)cc1C(=O)O` [Example 51, 6-Methyl-5′-((4-phenethoxyphenyl)carbamoyl)-[3,3′-bipyridine]-5-carboxylic acid] yielded an IC50 of 1000 to 10000 nM.
`O=C(Nc1ccc(OCCc2ccccc2)cc1)c1cccc(-c2ccc(C(=O)O)nc2)c1` [Example 23, 5-(3-((4-Phenethoxyphenyl)carbamoyl)phenyl)picolinic acid] gave an IC50 of 1000 to 10000 nM.
Compound `Cc1ncc(-c2cccc(C(=O)Nc3ccc(COCc4ccccn4)c(F)c3)c2)cc1C(=O)O` [Example 62, 5-[3-[[3-Fluoro-4-(2-pyridylmethoxymethyl)phenyl]carbamoyl]phenyl]-2-methyl-pyridine-3-carboxylic acid] has an IC50 of 1000 to 10000 nM.
With `COc1ccc(COCc2ccc(NC(=O)c3cccc(-c4cnc(C)c(C(=O)O)c4)c3)cc2F)cc1` [Example 63, 5-[3-[[3-Fluoro-4-[(4-methoxyphenyl)methoxymethyl]phenyl]carbamoyl]phenyl]-2-methyl-pyridine-3-carboxylic acid] the IC50 was < 1000 nM.
With `COc1cccc(S(=O)(=O)Cc2ccc(NC(=O)c3cccc(-c4cnc(C)c(C(=O)O)c4)c3)cc2)c1` [Example 100, 5-[3-[[4-[(3-Methoxyphenyl)sulfonylmethyl]phenyl]carbamoyl]phenyl]-2-methyl-pyridine-3-carboxylic acid] the IC50 was 1000 to 10000 nM.
In the case of `Cc1ncc(-c2cccc(C(=O)Nc3ccc(COCc4ccccc4)c(F)c3)c2)cc1C(=O)O` [Example 56, 5-[3-[[4-(Benzyloxymethyl)-3-fluoro-phenyl]carbamoyl]phenyl]-2-methyl-pyridine-3-carboxylic acid], the IC50 is reported as < 1000 nM.
In the case of `Cc1ncc(-c2ccc(F)c(C(=O)Nc3ccc(OCC4CC4)c(F)c3)c2)cc1C(=O)O` [Example 89, 5-[3-[[4-(Cyclopropylmethoxy)-3-fluoro-phenyl]carbamoyl]-4-fluoro-phenyl]-2-methyl-pyridine-3-carboxylic acid], the IC50 is reported as < 1000 nM.
`Cc1ncc(-c2cccc(C(=O)Nc3cccc(COCc4ccccc4)c3)c2)cc1C(=O)O` [Example 40, 5-(3-((3-((Benzyloxy)methyl)phenyl)carbamoyl)phenyl)-2-methylnicotinic acid] was tested, and the IC50 was 1000 to 10000 nM.
`Cc1ncc(-c2cccc(C(=O)Nc3ccc(CS(=O)(=O)Cc4ccccc4)cc3)c2)cc1C(=O)O` [Example 43, 5-(3-((4-((Benzylsulfonyl)methyl)phenyl)carbamoyl)phenyl)-2-methylnicotinic acid] gave an IC50 of 1000 to 10000 nM.
`Cc1ccc(S(=O)(=O)Cc2ccc(NC(=O)c3cccc(-c4cnc(C)c(C(=O)O)c4)c3)cc2)cc1` [Example 58, 2-Methyl-5-[3-[[4-(p-tolylsulfonylmethyl)phenyl]carbamoyl]phenyl]pyridine-3-carboxylic acid] was tested, and the IC50 was < 1000 nM.
In the case of `Cc1ncc(-c2cccc(C(=O)Nc3cnn(CCc4ccccc4)c3)c2)cc1C(=O)O` [Example 57, 2-Methyl-5-[3-[[1-(2-phenylethyl)pyrazol-4-yl]carbamoyl]phenyl]pyridine-3-carboxylic acid], the IC50 is reported as < 1000 nM.
`Cc1ncc(-c2cc(C(=O)Nc3ccc(COCc4ccccc4)c(F)c3)ccn2)cc1C(=O)O` [Example 77, 5-[4-[[4-(Benzyloxymethyl)-3-fluoro-phenyl]carbamoyl]-2-pyridyl]-2-methyl-pyridine-3-carboxylic acid] was tested, and the IC50 was < 1000 nM.
With `COc1cccc(COCc2ccc(NC(=O)c3cccc(-c4cnc(C)c(C(=O)O)c4)c3)cc2F)c1` [Example 64, 5-[3-[[3-Fluoro-4-[(3-methoxyphenyl)methoxymethyl]phenyl]carbamoyl]phenyl]-2-methyl-pyridine-3-carboxylic acid] the IC50 was < 1000 nM.
With `Cc1ncc(-c2cccc(C(=O)Nc3ccc(OCCc4ccccc4)cc3)c2)cc1C(=O)O` [Example 15, 2-Methyl-5-(3-((4-phenethoxyphenyl)carbamoyl)phenyl)nicotinic acid] the IC50 was < 1000 nM.
Work on `Cc1ncc(-c2ncc(C(=O)Nc3ccc(COCc4ccccc4)cc3)s2)cc1C(=O)O` [Example 49, 5-(5-((4-((Benzyloxy)methyl)phenyl)carbamoyl)thiazol-2-yl)-2-methylnicotinic acid] yielded an IC50 of 1000 to 10000 nM.
In the case of `Nc1ncc(-c2cccc(C(=O)Nc3ccc(OCCc4ccccc4)cc3)c2)cc1C(=O)O` [Example 12, 2-Amino-5-(3-((4-phenethoxyphenyl)carbamoyl)phenyl)nicotinic acid], the IC50 is reported as < 1000 nM.
For `Cc1ncc(-c2ccc(F)c(C(=O)Nc3ccc(COCC4CC4)c(F)c3)c2)cc1C(=O)O` [Example 88, 5-[3-[[4-(Cyclopropylmethoxymethyl)-3-fluoro-phenyl]carbamoyl]-4-fluoro-phenyl]-2-methyl-pyridine-3-carboxylic acid], the IC50 was < 1000 nM.
`O=C(Nc1ccc(OCCc2ccccc2)cc1)c1cccc(-c2cnc(C(F)(F)F)c(C(=O)O)c2)c1` [Example 4, 5-(3-((4-Phenethoxyphenyl)carbamoyl)phenyl)-2-(trifluoromethyl)nicotinic acid] was tested, and the IC50 was < 1000 nM.
